Laboratory results from ChEMBL document CHEMBL3885861, “Open TG-GATES”.

Species on record: Rattus norvegicus
Experiment: Open TG-GATES - Regimen: Single
Type: toxicity, organism-based, Sprague-Dawley
Set-up: regimen Single, gender Male, age 6 weeks
Conditions: in vivo, iv, route intravenous injection; for gamma-GTP / ALT / AST / CRE / DBIL / GLC / K / LDH / Na / PL / RALB / TBIL / TC / TP: tissue Plasma; for Bas / Eos / Hb / Ht / Lym / MCH / MCHC / MCV / Mono / Neu / Plat / RBC / Ret: tissue Blood; for KIDNEY_L / KIDNEY_R / KIDNEY_TOTAL: tissue Kidney

CC(C)C[C@H](NC(=O)[C@H](Cc1ccccc1)NC(=O)c1cnccn1)B(O)O [BORTEZOMIB]
gamma-GTP (0 mg/kg, 24 h, dose level Control): 1 IU/L | TERMINAL_BW (1 mg/kg, 3 h, dose level High): 228.6 g | Bas (1 mg/kg, 3 h, dose level High): 0% | Eos (1 mg/kg, 3 h, dose level High): 0.6% | Hb (1 mg/kg, 3 h, dose level High): 14.6 g/dL | Ht (1 mg/kg, 3 h, dose level High): 41.1% | Lym (1 mg/kg, 3 h, dose level High): 73% | MCH (1 mg/kg, 3 h, dose level High): 22.6 pg | MCHC (1 mg/kg, 3 h, dose level High): 35.4% | MCV (1 mg/kg, 3 h, dose level High): 63.7 fL | Mono (1 mg/kg, 3 h, dose level High): 2.2% | Neu (1 mg/kg, 3 h, dose level High): 23.8% | Plat (1 mg/kg, 3 h, dose level High): 121.1 x10_4/uL | RBC (1 mg/kg, 3 h, dose level High): 645.8 x10_4/ul | Ret (1 mg/kg, 3 h, dose level High): 8.6% | KIDNEY_L (1 mg/kg, 3 h, dose level High): 0.9 g | KIDNEY_R (1 mg/kg, 3 h, dose level High): 1 g | KIDNEY_TOTAL (1 mg/kg, 3 h, dose level High): 1.9 g | ALT (1 mg/kg, 3 h, dose level High): 60 IU/L | AST (1 mg/kg, 3 h, dose level High): 123.6 IU/L | CRE (1 mg/kg, 3 h, dose level High): 0.2 mg/dL | DBIL (1 mg/kg, 3 h, dose level High): 0.008 mg/dL | GLC (1 mg/kg, 3 h, dose level High): 155 mg/dL | K (1 mg/kg, 3 h, dose level High): 4.2 meq/L | LDH (1 mg/kg, 3 h, dose level High): 295.6 IU/L | Na (1 mg/kg, 3 h, dose level High): 141.3 meq/L | PL (1 mg/kg, 3 h, dose level High): 99 mg/dL | RALB (1 mg/kg, 3 h, dose level High): 3.7 g/dL | TBIL (1 mg/kg, 3 h, dose level High): 0.012 mg/dL | TC (1 mg/kg, 3 h, dose level High): 63.6 mg/dL | TP (1 mg/kg, 3 h, dose level High): 5 g/dL | gamma-GTP (1 mg/kg, 3 h, dose level High): 0.8 IU/L | TERMINAL_BW (1 mg/kg, 6 h, dose level High): 226.8 g | Bas (1 mg/kg, 6 h, dose level High): 0% | Eos (1 mg/kg, 6 h, dose level High): 0.2% | Hb (1 mg/kg, 6 h, dose level High): 14.2 g/dL | Ht (1 mg/kg, 6 h, dose level High): 39.8% | Lym (1 mg/kg, 6 h, dose level High): 61% | MCH (1 mg/kg, 6 h, dose level High): 22.8 pg | MCHC (1 mg/kg, 6 h, dose level High): 35.7% | MCV (1 mg/kg, 6 h, dose level High): 63.8 fL | Mono (1 mg/kg, 6 h, dose level High): 2.2% | Neu (1 mg/kg, 6 h, dose level High): 35.6% | Plat (1 mg/kg, 6 h, dose level High): 113.4 x10_4/uL | RBC (1 mg/kg, 6 h, dose level High): 623.4 x10_4/ul | Ret (1 mg/kg, 6 h, dose level High): 8.3% | KIDNEY_L (1 mg/kg, 6 h, dose level High): 1 g | KIDNEY_R (1 mg/kg, 6 h, dose level High): 1 g | KIDNEY_TOTAL (1 mg/kg, 6 h, dose level High): 1.9 g | ALT (1 mg/kg, 6 h, dose level High): 116.4 IU/L | AST (1 mg/kg, 6 h, dose level High): 191.4 IU/L | CRE (1 mg/kg, 6 h, dose level High): 0.2 mg/dL | DBIL (1 mg/kg, 6 h, dose level High): 0.006 mg/dL | GLC (1 mg/kg, 6 h, dose level High): 148.2 mg/dL | K (1 mg/kg, 6 h, dose level High): 4.4 meq/L | LDH (1 mg/kg, 6 h, dose level High): 314.4 IU/L | Na (1 mg/kg, 6 h, dose level High): 141.2 meq/L | PL (1 mg/kg, 6 h, dose level High): 78.4 mg/dL | RALB (1 mg/kg, 6 h, dose level High): 3.7 g/dL | TBIL (1 mg/kg, 6 h, dose level High): 0.008 mg/dL | TC (1 mg/kg, 6 h, dose level High): 44.6 mg/dL | TP (1 mg/kg, 6 h, dose level High): 4.9 g/dL | gamma-GTP (1 mg/kg, 6 h, dose level High): 0.6 IU/L | TERMINAL_BW (1 mg/kg, 9 h, dose level High): 222.8 g | Bas (1 mg/kg, 9 h, dose level High): 0% | Eos (1 mg/kg, 9 h, dose level High): 0.8% | Hb (1 mg/kg, 9 h, dose level High): 14.3 g/dL | Ht (1 mg/kg, 9 h, dose level High): 40.6% | Lym (1 mg/kg, 9 h, dose level High): 49% | MCH (1 mg/kg, 9 h, dose level High): 23 pg | MCHC (1 mg/kg, 9 h, dose level High): 35.2% | MCV (1 mg/kg, 9 h, dose level High): 65.2 fL | Mono (1 mg/kg, 9 h, dose level High): 2% | Neu (1 mg/kg, 9 h, dose level High): 48.2% | RBC (1 mg/kg, 9 h, dose level High): 622 x10_4/ul | Ret (1 mg/kg, 9 h, dose level High): 8.2% | KIDNEY_L (1 mg/kg, 9 h, dose level High): 1 g | KIDNEY_R (1 mg/kg, 9 h, dose level High): 1 g | KIDNEY_TOTAL (1 mg/kg, 9 h, dose level High): 2 g | ALT (1 mg/kg, 9 h, dose level High): 122.2 IU/L | AST (1 mg/kg, 9 h, dose level High): 182 IU/L | CRE (1 mg/kg, 9 h, dose level High): 0.2 mg/dL | DBIL (1 mg/kg, 9 h, dose level High): 0.014 mg/dL | GLC (1 mg/kg, 9 h, dose level High): 150.4 mg/dL | K (1 mg/kg, 9 h, dose level High): 4 meq/L | LDH (1 mg/kg, 9 h, dose level High): 262 IU/L | Na (1 mg/kg, 9 h, dose level High): 140.9 meq/L | PL (1 mg/kg, 9 h, dose level High): 74 mg/dL | RALB (1 mg/kg, 9 h, dose level High): 3.6 g/dL | TBIL (1 mg/kg, 9 h, dose level High): 0.02 mg/dL | TC (1 mg/kg, 9 h, dose level High): 36.2 mg/dL | TP (1 mg/kg, 9 h, dose level High): 4.7 g/dL | gamma-GTP (1 mg/kg, 9 h, dose level High): 0.8 IU/L | TERMINAL_BW (1 mg/kg, 24 h, dose level High): 215.1 g | Bas (1 mg/kg, 24 h, dose level High): 0% | Eos (1 mg/kg, 24 h, dose level High): 0% | Hb (1 mg/kg, 24 h, dose level High): 12.6 g/dL | Ht (1 mg/kg, 24 h, dose level High): 35.2% | Lym (1 mg/kg, 24 h, dose level High): 42% | MCH (1 mg/kg, 24 h, dose level High): 23.4 pg | MCHC (1 mg/kg, 24 h, dose level High): 35.8% | MCV (1 mg/kg, 24 h, dose level High): 65.5 fL | Mono (1 mg/kg, 24 h, dose level High): 2.7% | Neu (1 mg/kg, 24 h, dose level High): 54% | Plat (1 mg/kg, 24 h, dose level High): 89 x10_4/uL | RBC (1 mg/kg, 24 h, dose level High): 538.3 x10_4/ul | Ret (1 mg/kg, 24 h, dose level High): 5.4% | KIDNEY_L (1 mg/kg, 24 h, dose level High): 1 g | KIDNEY_R (1 mg/kg, 24 h, dose level High): 1 g | KIDNEY_TOTAL (1 mg/kg, 24 h, dose level High): 2 g | ALT (1 mg/kg, 24 h, dose level High): 163 IU/L | AST (1 mg/kg, 24 h, dose level High): 368.7 IU/L | CRE (1 mg/kg, 24 h, dose level High): 0.2 mg/dL | DBIL (1 mg/kg, 24 h, dose level High): 0.5 mg/dL | GLC (1 mg/kg, 24 h, dose level High): 134.7 mg/dL | K (1 mg/kg, 24 h, dose level High): 4 meq/L | LDH (1 mg/kg, 24 h, dose level High): 922.3 IU/L | Na (1 mg/kg, 24 h, dose level High): 135.5 meq/L | PL (1 mg/kg, 24 h, dose level High): 100.3 mg/dL | RALB (1 mg/kg, 24 h, dose level High): 2.7 g/dL | TBIL (1 mg/kg, 24 h, dose level High): 0.5 mg/dL | TC (1 mg/kg, 24 h, dose level High): 41 mg/dL | TP (1 mg/kg, 24 h, dose level High): 3.9 g/dL | gamma-GTP (1 mg/kg, 24 h, dose level High): 4.3 IU/L
